Structures are written as SMILES.

The values below come from US7709497B2, “Pyrazolo[3,4-b]pyridine compound, and its use as a PDE4 inhibitor” (Glaxo Group Limited, priority 2004, dated 2010).

Data set [1] addresses T1, PDE4B (human recombinant) (Homo sapiens, UniProt Q07343).
T1 construct: made in house; host or cells: Saccharomyces cerevisiae strain GL62 (PDE-deficient yeast)
The data set can be described thus: PDE4B inhibition, IMAP Fluorescence Polarisation (FP) assay. Particulars: n = 2; accuracy ±about 0.5 log unit; read-out: PDE4B pIC50 (FP assay, mean value) (converted). The class given is biochemical. An excerpt: Human recombinant PDE4B, in particular the 2B splice variant thereof (HSPDE4B2B), is disclosed in WO 94/20079 and also M. M. McLaughlin et al., “A low Km, rolipram-sensitive, cAMP-specific phosphodiesterase from human brain: cloning and expression of cDNA, biochemical characterisation of recombinant protein, and tissue distribution of mRNA”, J. Biol. Chem., 1993, 268, 6470-6476. […]
(§1) The ability of compounds to inhibit catalytic activity at PDE4B (human recombinant) or PDE4D (human recombinant) can optionally be determined by IMAP Fluorescence Polarisation (FP) assay (IMAP Explorer kit, available from Molecular Devices Corporation, Sunnydale, Calif., USA; Molecular Devices code: R8062) in a 384-well format.
(§2) The IMAP FP assay is able to measure PDE activity in an homogenous, non-radioactive assay format. […] Binding of Fl-AMP product to the beads (coated with the immobilised trivalent cations) slows the rotation of the bound Fl-AMP and leads to an increase in the fluorescence polarisation ratio of parallel to perpendicular light. […]
Biological Data obtained for Example 1 and/or Example 1A (i.e. the compound of formula (I)) (PDE4B and PDE4D inhibitory activities, usually as an average of more than one reading) are as follows, based on current measurements only, and using the above or similar or analogous assay methods. […]
A general note: In fluorescence polarisation assays a small probe gives low polarisation when free and higher when bound to something large.

Data set [2] can be described thus: Aqueous solubility preliminary screen. It is filed as physicochemical. The settings on record: pH 7.4 phosphate buffered saline with about 5% DMSO, aqueous with cosolvent or surfactant or cyclodextrin, free base, pH 7.4 PBS with about 5% DMSO, about room temperature. The procedure: Aqueous solubility: A preliminary screen aims to estimate roughly the aqueous solubility of compounds by (as an approximate summary): (i) creating a ca. 10 mM solution of the compound in DMSO, (ii) diluting a portion of this DMSO solution by mixing about 19 parts by volume of pH 7.4 aqueous phosphate buffered saline (PBS) buffer with 1 part by volume of the ca. 10 mM DMSO solution, (iii) “filtering” the mixture with the aid of centrifugation, and then (iv) measuring the concentration of the dissolved compound in the “filtrate”.

In data set [3] the target is PDE4D (human recombinant) (Homo sapiens, UniProt Q08499). Kind of data set: PDE4D inhibition, IMAP Fluorescence Polarisation (FP) assay. The class given is biochemical. Particulars: n = 2; accuracy ±about 0.5 log unit; read-out: PDE4D pIC50 (FP assay, mean value) (converted).
Source text: Human recombinant PDE4D (HSPDE4D3A) is disclosed in P. A. Baecker et al., “Isolation of a cDNA encoding a human rolipram-sensitive cyclic AMP phoshodiesterase (PDE IVD)”, Gene, 1994, 138, 253-256.
as §1, §2
Test compounds (small volume, e.g. ca. 0.5 to 1 microliters (ul), preferably ca. 0.5 ul, of solution in DMSO) are preincubated at ambient temperature (room temperature, e.g. 19-23° C.) in black 384-well microtitre plates (supplier: NUNC, code 262260) with PDE enzyme in 10 mM Tris-HCl buffer pH 7.2, 10 mM MgCl2, 0.1% (w/v) bovine serum albumin, and 0.05% NaN3 for 10-30 minutes. […] The Fluorescence Polarisation (FP) ratio of parallel to perpendicular light is measured using an Analyst™ plate reader (from Molecular Devices Corporation). […]

Sequence of PDE4D (human recombinant) (Q08499 1-673 isoform Q08499-2): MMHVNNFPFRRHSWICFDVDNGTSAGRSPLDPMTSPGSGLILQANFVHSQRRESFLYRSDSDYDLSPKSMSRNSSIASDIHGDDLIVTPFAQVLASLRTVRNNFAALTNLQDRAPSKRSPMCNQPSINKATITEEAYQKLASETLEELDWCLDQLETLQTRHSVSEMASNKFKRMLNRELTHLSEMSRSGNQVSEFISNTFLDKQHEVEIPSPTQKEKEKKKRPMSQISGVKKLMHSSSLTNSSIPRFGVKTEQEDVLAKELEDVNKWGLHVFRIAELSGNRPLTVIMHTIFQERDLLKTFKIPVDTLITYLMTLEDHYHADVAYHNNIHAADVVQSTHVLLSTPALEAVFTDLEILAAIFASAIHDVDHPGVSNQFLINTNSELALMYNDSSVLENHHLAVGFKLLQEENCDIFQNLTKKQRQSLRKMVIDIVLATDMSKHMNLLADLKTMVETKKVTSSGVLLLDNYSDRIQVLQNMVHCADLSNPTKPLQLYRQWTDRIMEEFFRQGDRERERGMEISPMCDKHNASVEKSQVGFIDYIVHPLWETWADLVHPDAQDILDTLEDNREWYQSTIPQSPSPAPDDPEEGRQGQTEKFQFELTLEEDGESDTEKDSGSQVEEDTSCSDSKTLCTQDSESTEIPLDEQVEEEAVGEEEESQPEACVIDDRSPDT
T1 sequence (Q07343 1-564 isoform Q07343-2): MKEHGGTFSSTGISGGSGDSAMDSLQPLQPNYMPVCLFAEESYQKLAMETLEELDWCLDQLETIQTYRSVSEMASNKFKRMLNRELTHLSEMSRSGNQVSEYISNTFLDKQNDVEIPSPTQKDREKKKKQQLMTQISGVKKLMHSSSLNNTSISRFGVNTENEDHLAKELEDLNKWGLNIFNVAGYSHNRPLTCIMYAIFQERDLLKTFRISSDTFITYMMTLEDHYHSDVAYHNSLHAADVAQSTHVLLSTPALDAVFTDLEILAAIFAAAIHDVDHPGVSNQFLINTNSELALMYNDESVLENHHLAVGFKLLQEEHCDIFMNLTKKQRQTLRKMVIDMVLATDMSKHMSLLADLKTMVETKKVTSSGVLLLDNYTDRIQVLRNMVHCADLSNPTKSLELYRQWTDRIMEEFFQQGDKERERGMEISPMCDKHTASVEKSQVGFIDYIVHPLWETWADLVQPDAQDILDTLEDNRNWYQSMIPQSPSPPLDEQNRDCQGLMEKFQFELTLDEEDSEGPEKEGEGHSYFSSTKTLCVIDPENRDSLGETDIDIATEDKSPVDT

For `CCn1ncc2c(NC3CCN(C(N)=O)CC3)c(C(=O)NCc3ccc(C)c(C)c3)cnc21` [compound of formula (I), 4-{[1-(aminocarbonyl)-4-piperidinyl]amino}-N-[(3,4-dimethylphenyl)methyl]-1-ethyl-1H-pyrazolo[3,4-b]pyridine-5-carboxamide], the values for the IC50 in data set [1] and in data set [3] were 0.676 nM and 0.55 nM, respectively. Besides, the solubility (kinetic) (in general, solubility judged after dilution from a stock solution rather than from solid) in data set [2] was about 60 µg/mL.
